# Assay results: US8153686B2 (Theravance, Inc., priority 2008, dated 2012)
# Where two headings read alike, the source gives them in different places.
# Experiments:
# human mu opioid receptor [1] = molecular target: T1, human mu opioid receptor (Homo sapiens, UniProt P35372); assay: Radioligand binding assay, human mu opioid receptor
# human mu opioid receptor [2] = molecular target: T1, human mu opioid receptor; assay: Human mu [35S]GTPγS nucleotide exchange assay (agonist mediated activation); assay type: biochemical; conditions: read-out: intrinsic activity (IA)
# [3] = tested on: loperamide-induced delayed gastric emptying; assay: Rat gastric emptying assay (reversal of loperamide-induced delayed gastric emptying); assay type: in vivo; conditions: administered orally, loperamide 1 mg/kg s.c., gastric emptying model
# Experimental: Assay 3: Rat Model of In Vivo Efficacy In this assay the efficacy of test compounds was evaluated in a model of gastrointestinal transit, which evaluates peripheral activity. This study was approved by the Institutional Animal Care and Use Committee at […]. and conformed to the Guide for the Care and Use of Laboratory Animals published by the National Academy of Sciences (©1996). a. Rat Gastric Emptying Assay Test compounds were evaluated in the rat gastric emptying assay to determine their ability to reverse loperamide-induced delayed gastric emptying. Rats were fasted up overnight prior to administration of test compounds or vehicle by intravenous, subcutaneous, intramuscular or oral routes of administration at doses ranging from 0.001 to about 30 milligrams/kilogram (mg/kg). The administration of test compound was followed by subcutaneous administration of loperamide at a dose of 1 mg/kg or vehicle. Five minutes post loperamide or vehicle administration, a non-nutritive, non-absorbable charcoal meal was administered via oral gavage and animals were allowed free access to water for the sixty minute duration of the experiment. Animals were then euthanized via carbon dioxide asphyxiation followed by thoracotomy and the stomach was carefully excised. The stomach was ligated at the lower esophageal sphincter and the pyloric sphincter to prevent additional emptying during tissue removal. Gastric weight was then determined after removal of the ligatures. b. Data Analysis and Results Data was analyzed using the GraphPad Prism Software package (GraphPad Software, Inc., San Diego, Calif.). Percent reversal curves were constructed by non-linear regression analysis using the sigmoidal dose response (variable slope) model and best-fit ID50 values were calculated. Curve minima and maxima were fixed to loperamide control values (indicating 0% reversal) and vehicle controls (indicating 100% reversal), respectively. Results are expressed as ID50, the dose required for 50% reversal of the effects of loperamide, in milligrams per kilogram.
# [4] = displacement of [3H]-Diprenorphine 0.5 nM, CHO-K1 cell membranes, read-out: pKi at the human mu opioid receptor (converted)
# [5] = bound [35S]GTPγS relative to DAMGO (IA=100), CHO-K1 membranes expressing human mu opioid receptor
# T1 sequence (P35372 whole entry): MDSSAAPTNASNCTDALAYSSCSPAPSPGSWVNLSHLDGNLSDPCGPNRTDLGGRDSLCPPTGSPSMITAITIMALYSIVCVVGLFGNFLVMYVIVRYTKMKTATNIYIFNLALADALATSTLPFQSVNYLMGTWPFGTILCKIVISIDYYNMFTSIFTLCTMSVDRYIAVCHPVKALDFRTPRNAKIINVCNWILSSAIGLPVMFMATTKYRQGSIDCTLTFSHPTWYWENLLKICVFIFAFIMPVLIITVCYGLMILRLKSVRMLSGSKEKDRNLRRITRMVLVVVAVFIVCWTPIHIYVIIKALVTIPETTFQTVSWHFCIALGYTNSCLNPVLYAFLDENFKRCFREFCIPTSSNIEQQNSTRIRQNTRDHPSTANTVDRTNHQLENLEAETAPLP
SMILES,Ki (human mu opioid receptor [1]; [4]) [nM],Emax (human mu opioid receptor [2]; [5]) [%],"ID50, dose required for 50% reversal of the effects of loperamide [3] [mg/kg]",Ki (human mu opioid receptor [1]) [nM],Emax (human mu opioid receptor [2]) [%]
"CO[C@@H]1Cc2ccc(C(N)=O)cc2C(C)(C)[C@H]1NCCCNC(=O)CC(C)(C)C (relative stereo) [Example 11, trans-7-[3-(3,3-Dimethyl-butyrylamino)-propylamino]-6-methoxy-8,8-dimethyl-5,6,7,8-tetrahydro-naphthalene-2-carboxylic acid amide]",0.2,1,0.4,–,–
"CO[C@@H]1Cc2ccc(C(N)=O)cc2C(C)(C)[C@H]1NCCCNC(=O)C1CCCCC1 (relative stereo) [Example 1, trans-7-[3-(Cyclohexanecarbonyl-amino)-propylamino]-6-methoxy-8,8-dimethyl-5,6,7,8-tetrahydro-naphthalene-2-carboxylic acid amide]",0.158,10,0.5,–,–
"COC1Cc2ccc(C(N)=O)cc2C(C)(C)C1NC[C@H](N)Cc1ccccc1 (single isomer, unassigned) [Example 8]",–,–,–,1.58,-7

# The next lines start with results.
Ki (human mu opioid receptor [1]; [4]) [nM],Emax (human mu opioid receptor [2]; [5]) [%],SMILES,"ID50, dose required for 50% reversal of the effects of loperamide [3] [mg/kg]",Ki (human mu opioid receptor [1]) [nM],Emax (human mu opioid receptor [2]) [%]
0.0631,–,"CO[C@H]1Cc2ccc(C(N)=O)cc2C(C)(C)[C@@H]1NCCCNC(=O)CC(C)(C)C [Example 12, (6S,7S)-7-[3-(3,3-Dimethyl-butyrylamino)-propylamino]-6-methoxy-8,8-dimethyl-5,6,7,8-tetrahydro-naphthalene-2-carboxylic acid amide]",0.11,–,–
0.126,-2,"CO[C@@H]1Cc2ccc(C(N)=O)cc2C(C)(C)[C@H]1NCCCNC(=O)c1ccccc1 (relative stereo) [Example 16, trans-7-(3-Benzoylamino-propylamino)-6-methoxy-8,8-dimethyl-5,6,7,8-tetrahydro-naphthalene-2-carboxylic acid amide]",0.63,–,–
